# Assay results from US6770597B2, “Benzohydrazide derivatives as herbicides and desiccant compositions containing them” (Ishihara Sangyo Kaisha, Ltd., priority 2002, dated 2004).
# Experiments:
# Assay type in all cases: in vivo
# [1] = system: barnyardgrass (Echinochloa crus-galli, ECHCG); assay: Greenhouse herbicide screen, post-emerge application, phytotoxicity rating; conditions: POST emergent, 14 days after application, scale 0-100
# From the text: (§1) A standard greenhouse herbicide activity screening system was used to evaluate the herbicidal efficacy and crop safety of these test compounds. Seven broadleaf weed species including redroot pigweed (Amaranthus retrofiexus, AMARE), velvetleaf (Abutilon theophrasti, ABUTH), sicklepod (Cassia obtusifolia, CASOB), ivyleaf morningglory (Ipomoea hederacea, IPOHE), lambsquarters (Chenopodium album, CHEAL), common ragweed (Ambrosia artemisiifolia L., AMBEL), and cocklebur (Xanthium strumarium, XANST) were used as test species. Four grass weed species including green foxtail (Setaria viridis, SETVI), barnyardgrass (Echinochloa crus-galli, ECHCG), johnsongrass (Sorghum halepense, SORHA), and large crabgrass (Digitaria sanguinalis, DIGSA) were also used. In addition, four crop species, field corn (Zea mays L., var. Dekalb 535, CORN), soybean (Glycine max L., var. Pella 86, SOY), upland rice (Oryza sp., var.Cocodrie, RICE) and wheat (Triticum aestivum L.) were included.
# (§2) All plants were grown in 10 cm square plastic pots which were filled with a sandy loam soil mix. For pre-emerge tests, seeds were planted one day prior to application of the test compounds. For post-emerge tests, seeds were planted 8-21 days prior to the test to allow emergence and good foliage development prior to application of the test substances. At the time of the post-emerge application, plants of all species were usually at the 2-3 leaf stage of development.
# (§3) All test compounds were dissolved in acetone and applied to the test units in a volume of 187 l/ha. Test materials were applied at rates ranging from 15 g ai/ha to 1000 g ai/ha using a track sprayer equipped with a TJ8001E even flow flat fan spray nozzle. Plants were arranged on a shelf so that the top of the canopy (post-emerge) or top of the soil surface (pre-emerge) was 40-45 cm below the nozzle. Pressurized air was used to force the test solution through the nozzle as it was mechanically advanced (via electrically driven chain drive) over the top of all test plants/pots. This application simulates a typical commercial field herbicide application.
# (§4) Pre-emergence tests were top watered immediately after treatment to incorporate the test materials, then routinely top-watered for normal growth. Post-emerge test units were always bottom-watered.
# (§5) At 14 days after application of the test materials, phytotoxicity ratings were recorded. A rating scale of 0-100 was used as previously described in Research Methods in Weed Science, 2nd edition, B. Truelove, Ed., Southern Weed Science Society, Auburn University, Auburn, Ala., 1977. Briefly, “0” corresponds to no damage and “100” corresponds to complete death of all plants in the test unit. This scale was used both to determine efficacy against weed species and damage to crop species. Herbicide activity data for various compounds of this invention, which are shown by compound No. in Tables 1-12, are shown in Tables 13 and 14.
# [2] = system: cocklebur (Xanthium strumarium, XANST); assay: as above; conditions: POST emergent, 14 days after application, scale 0-100
# From the text: as §1, §2, §3, §4, §5
# [3] = system: common ragweed (Ambrosia artemisiifolia L., AMBEL); assay: as above; conditions: POST emergent, 14 days after application, scale 0-100
# From the text: as §1, §2, §3, §4, §5
# [4] = system: green foxtail (Setaria viridis, SETVI); assay: as above; conditions: POST emergent, 14 days after application, scale 0-100
# From the text: as §1, §2, §3, §4, §5
# [5] = system: ivyleaf morningglory (Ipomoea hederacea, IPOHE); assay: as above; conditions: POST emergent, 14 days after application, scale 0-100
# From the text: as §1, §2, §3, §4, §5
# [6] = system: johnsongrass (Sorghum halepense, SORHA); assay: as above; conditions: POST emergent, 14 days after application, scale 0-100
# From the text: as §1, §2, §3, §4, §5
# [7] = system: lambsquarters (Chenopodium album, CHEAL); assay: as above; conditions: POST emergent, 14 days after application, scale 0-100
# From the text: as §1, §2, §3, §4, §5
# [8] = system: large crabgrass (Digitaria sanguinalis, DIGSA); assay: as above; conditions: POST emergent, 14 days after application, scale 0-100
# From the text: as §1, §2, §3, §4, §5
# [9] = system: redroot pigweed (Amaranthus retrofiexus, AMARE); assay: as above; conditions: POST emergent, 14 days after application
# From the text: as §1, §2, §3, §4, §5
# [10] = system: sicklepod (Cassia obtusifolia, CASOB); assay: as above; conditions: POST emergent, 14 days after application, scale 0-100
# From the text: as §1, §2, §3, §4, §5
# [11] = system: velvetleaf (Abutilon theophrasti, ABUTH); assay: as above; conditions: POST emergent, 14 days after application, scale 0-100
# From the text: as §1, §2, §3, §4, §5
# [12] = system: field corn (Zea mays L., var. Dekalb 535, CORN); assay: Greenhouse herbicide screen, post-emerge application, crop damage rating; conditions: POST emergent, 14 days after application, scale 0-100
# From the text: as §1, §2, §3, §4, §5
# [13] = system: upland rice (Oryza sp., var.Cocodrie, RICE); assay: as above; conditions: POST emergent, 14 days after application, scale 0-100
# From the text: as §1, §2, §3, §4, §5
# [14] = system: barnyardgrass (Echinochloa crus-galli, ECHCG); assay: Greenhouse herbicide screen, pre-emerge application, phytotoxicity rating; conditions: PRE emergent, 14 days after application, rating scale 0-100
# From the text: as §1, §2, §3, §4, §5
# [15] = system: cocklebur (Xanthium strumarium, XANST); assay: as above; conditions: PRE emergent, 14 days after application, rating scale 0-100
# From the text: as §1, §2, §3, §4, §5
# [16] = system: common ragweed (Ambrosia artemisiifolia L., AMBEL); assay: as above; conditions: PRE emergent, 14 days after application, rating scale 0-100
# From the text: as §1, §2, §3, §4, §5
# [17] = system: green foxtail (Setaria viridis, SETVI); assay: as above; conditions: PRE emergent, 14 days after application, rating scale 0-100
# From the text: as §1, §2, §3, §4, §5
# [18] = system: ivyleaf morningglory (Ipomoea hederacea, IPOHE); assay: as above; conditions: PRE emergent, 14 days after application, rating scale 0-100
# From the text: as §1, §2, §3, §4, §5
# [19] = system: johnsongrass (Sorghum halepense, SORHA); assay: as above; conditions: PRE emergent, 14 days after application, rating scale 0-100
# From the text: as §1, §2, §3, §4, §5
# [20] = system: lambsquarters (Chenopodium album, CHEAL); assay: as above; conditions: PRE emergent, 14 days after application, rating scale 0-100
# From the text: as §1, §2, §3, §4, §5
# [21] = system: large crabgrass (Digitaria sanguinalis, DIGSA); assay: as above; conditions: PRE emergent, 14 days after application, rating scale 0-100
# From the text: as §1, §2, §3, §4, §5
# [22] = system: redroot pigweed (Amaranthus retrofiexus, AMARE); assay: as above; conditions: PRE emergent, 14 days after application, rating scale 0-100
# From the text: as §1, §2, §3, §4, §5
# [23] = system: sicklepod (Cassia obtusifolia, CASOB); assay: as above; conditions: PRE emergent, 14 days after application, rating scale 0-100
# From the text: as §1, §2, §3, §4, §5
# [24] = system: velvetleaf (Abutilon theophrasti, ABUTH); assay: as above; conditions: PRE emergent, 14 days after application, rating scale 0-100
# From the text: as §1, §2, §3, §4, §5
# [25] = system: field corn (Zea mays L., var. Dekalb 535, CORN); assay: Greenhouse herbicide screen, pre-emerge application, crop damage rating; conditions: PRE emergent, 14 days after application, rating scale 0-100
# From the text: as §1, §2, §3, §4, §5
# [26] = system: upland rice (Oryza sp., var.Cocodrie, RICE); assay: as above; conditions: PRE emergent, 14 days after application, rating scale 0-100
# From the text: as §1, §2, §3, §4, §5
smiles,measurement,setting,value
Cn1c(C(F)(F)F)cc(=O)n(-c2cc(C(=O)NN3CCCC3)c(Cl)cc2F)c1=O [Compound 1-11],phytotoxicity rating ECHCO,[1]; 63 g ai/ha,70
same,phytotoxicity rating ECHCO,[1]; 250 g ai/ha,100
same,phytotoxicity rating XANST,[2]; 63 g ai/ha,75
same,phytotoxicity rating XANST,[2]; 250 g ai/ha,100
same,phytotoxicity rating AMBEL,[3]; 63 g ai/ha,99
same,phytotoxicity rating AMBEL,[3]; 250 g ai/ha,100
same,phytotoxicity rating SETVI,[4]; 63 g ai/ha,50
same,phytotoxicity rating SETVI,[4]; 250 g ai/ha,55
same,phytotoxicity rating IPOHE,[5]; 63 g ai/ha,100
same,phytotoxicity rating IPOHE,[5]; 250 g ai/ha,100
same,phytotoxicity rating SORHA,[6]; 63 g ai/ha,70
same,phytotoxicity rating SORHA,[6]; 250 g ai/ha,80
same,phytotoxicity rating CHEAL,[7]; 63 g ai/ha,90
same,phytotoxicity rating CHEAL,[7]; 250 g ai/ha,100
same,phytotoxicity rating DIGSA,[8]; 63 g ai/ha,40
same,phytotoxicity rating DIGSA,[8]; 250 g ai/ha,55
same,phytotoxicity rating AMARE,"[9]; 63 g ai/ha, scale 0-100 (0 no damage, 100 complete death)",100
same,phytotoxicity rating AMARE,"[9]; 250 g ai/ha, scale 0-100",100
same,phytotoxicity rating CASOB,[10]; 63 g ai/ha,15
same,phytotoxicity rating CASOB,[10]; 250 g ai/ha,80
same,phytotoxicity rating ABUTH,[11]; 63 g ai/ha,100
same,phytotoxicity rating ABUTH,[11]; 250 g ai/ha,100
same,crop damage rating CORN,[12]; 63 g ai/ha,35
same,crop damage rating CORN,[12]; 250 g ai/ha,95
same,crop damage rating RICE,[13]; 63 g ai/ha,65
same,crop damage rating RICE,[13]; 250 g ai/ha,65
same,phytotoxicity rating ECHCG,[14]; 63 g ai/ha,15
same,phytotoxicity rating ECHCG,[14]; 250 g ai/ha,99
same,phytotoxicity rating XANST,[15]; 63 g ai/ha,0
same,phytotoxicity rating XANST,[15]; 250 g ai/ha,40
same,phytotoxicity rating AMBEL,[16]; 63 g ai/ha,60
same,phytotoxicity rating AMBEL,[16]; 250 g ai/ha,98
same,phytotoxicity rating SETVI,[17]; 63 g ai/ha,50
same,phytotoxicity rating SETVI,[17]; 250 g ai/ha,100
same,phytotoxicity rating IPOHE,[18]; 63 g ai/ha,70
same,phytotoxicity rating IPOHE,[18]; 250 g ai/ha,100
same,phytotoxicity rating SORHA,[19]; 63 g ai/ha,35
same,phytotoxicity rating SORHA,[19]; 250 g ai/ha,99
same,phytotoxicity rating CHEAL,[20]; 63 g ai/ha,100
same,phytotoxicity rating CHEAL,[20]; 250 g ai/ha,100
same,phytotoxicity rating DIGSA,[21]; 63 g ai/ha,50
same,phytotoxicity rating DIGSA,[21]; 250 g ai/ha,100
same,phytotoxicity rating AMARE,[22]; 63 g ai/ha,100
same,phytotoxicity rating AMARE,[22]; 250 g ai/ha,100
same,phytotoxicity rating CASOB,[23]; 63 g ai/ha,70
same,phytotoxicity rating CASOB,[23]; 250 g ai/ha,99
same,phytotoxicity rating ABUTH,[24]; 63 g ai/ha,100
same,phytotoxicity rating ABUTH,[24]; 250 g ai/ha,100
same,crop damage rating CORN,[25]; 63 g ai/ha,0
same,crop damage rating CORN,[25]; 250 g ai/ha,50
same,crop damage rating RICE,[26]; 63 g ai/ha,5
same,crop damage rating RICE,[26]; 250 g ai/ha,55
